From US4619943A, “Neolignans of Saururus cernuus L and analogues thereof” (priority 1984, dated 1986)
Converted amounts (≈) assume the structure as drawn. “And” between values parts separate entries of the source, which are not always exact repeats. Equal entries are not always repeated. “Also recorded” adds a separate entry of the source.

Columns and labels:
Solubility = format: physicochemical
[1] = Suppression of aggressiveness in isolated mice; format: in vivo, male Swiss mice; conditions: eighty minutes after injection; for % Inhibition of Aggressiveness: 2 mg/Kg
Protocol: They were not disturbed except for replacement of food. Under these conditions, about two thirds of the mice became aggressive as manifested by vicious attacks within one minute on a nonisolated male mouse placed in their cage. Such combative mice were divided into two groups. With one group held as the control, the mice in other group were injected with SC-8 at 2 or 1 mg/Kg. The mice were tested for aggressiveness before the injection and eighty minutes after the injection. If no fighting took place with a nonisolated mouse introduced into the cage, this was regarded as inhibition of aggressiveness (P. A. J. Janssen, A. H. Jageneau and C. J. E. Niemegeers; J. Pharmacol, Exp. Ther. 129, 471 (1960)). The experiment was repeated with SC-8 at 2 mg/Kg.

Pimephales promelas = experiment: Acute toxicity to fish; format: in vivo; conditions: for % Mortality, Avg / % Mortality, single replicates (1 to 6): 2 hours; for % Mortality, single replicates (1 to 6): 120 min
Protocol: Many compounds having insecticidal activity also show toxicity to fish. For example, rotenoids, pyrethrins, and DDT have significant toxicity to fish. For this reason, fish have been used frequently to indicate potential insecticidal activity. The present compounds were tested for acute toxicity to fish by the method described in "Methods For Acute Toxicity Tests With Fish, Macro-Invertebrates and Amphibians", EPA 660/3-75-009, Committee on Methods for Toxicity Tests With Aquatic Organisms, Environmental Protection Agency, Corvallis, OR, 1975.
The fish, commonly known as Missouri minnows or fat heads (Pimephales promelas, family, cyprinidae) were purchased from a local hatchery and equilibrated to the new surroundings for 24 hours. They were kept in deionized water, previously adjusted to pH 6.5 with phosphate buffer at 23° C. Sufficient oxygen was provided, and the fish were deprived of food during the test period.
Groups of six fish were placed in containers with different concentrations of the test compound. The percent mortality was recorded every 30 minutes. The LC 50 values (mg/L) and 95% confidence limits were determined from the percent mortality data after 2 hours of exposure from 6 separate replicates using the method of Lichfield and Wiloxon [(J. Pharmacology and Exp. Therepeutics, 96, 99-113 (1949))].

Meloidogyne incognita = experiment: Nematicidal test: galls on tomato root system; format: in vivo; conditions: 10 days
Protocol: Juveniles of the nematode Meloidogyne incognita were placed in 10 ml vials containing 5 ml of sand each and were soaked with 3 ml of solutions of the test compound at different concentrations in 1% ethanol in water for 24 hours. Tomato seedlings (4-6" high, with roots partly trimmed) were placed in the vials which were then placed in a growth chamber at 28° for 10 days. The tests were watered as needed to keep the sand moist. After 10 days, the plants were removed, and the galls counted on each root system. Each sample was tested in replicates of 10, and the results were analyzed according to Duncan's multiple range test ([…]). The results for SC-8 are shown in Tables 3 and 4 which represent two different experiments spaced approximately two months apart. In the later test (Table 4), the amount of ethanol in the test solutions was varied.

[2] = Acute toxicity (LD50) in mice, procedure of Turner; format: in vivo, male Swiss mice; conditions: mouse, in vivo, ip; mice, intraperitoneal, 24 hours
mice [3] = experiment: Acute toxicity (LD50) in mice, procedure of Turner; format: in vivo, male Swiss mice
[4] = test system: cabbage looper (Trichoplusia ni [Hubner]); experiment: Insecticidal activity against cabbage looper; format: in vivo; conditions: Trichoplusia ni, 336 h, second instar larvae, 14 days
Protocol: The present compounds were tested for insecticidal activity against cabbage looper (Trichoplusia ni [Hubner]), and southern armyworm (Spodoptera eridania) at application rates of 1000 and 500 ppm. The tests were conducted in petri dishes containing a solid food source in which the test compounds had been incorporated. The petri dishes containing the treated food source were infested with second instar larvae of southern armyworms or cabbage loopers. Ten larvae per replicate and two replicates per test rate were used. Mortality data were taken 14 days after infestation.

[5] = test system: mosquito larvae (Aedes aegypti); experiment: Mosquito larvae test; format: in vivo; conditions: 24 hours
Protocol: Similarly, in a test using mosquito larvae (Aedes aegypti) as the insect test species, SC-7 gave 15% mortality and SC-8 gave 93% mortality at an application rate of 100 ppm. In this test, one ml of a solution of 1000 ppm of the test compound in 10% acetone - 90% water was added to 9 ml of water in a culture tube. Ten mosquito larvae were added, and mortality readings were taken 24 hours later.

mice [6] = experiment: Behavioral assay in mice (Campbell and Richter), sixteen behavioral signs; format: in vivo; conditions: injected, after 30 minutes
Protocol: The behavioral assay in mice was carried out using the procedures of Campbell and Richter (D. E. S. Campbell and W. Richter, Acta Pharmacol. et Toxicol. 25, 345 (1967)). The method involved injection of five mice with the drug and obseving for sixteen behavioral signs after 30 minutes. A recognizable pattern will be apparent, characteristic of various CNS-activities: sympathomimetic, tranquilizer, etc.
Ten male Swiss mice (20-25 g) were divided into groups. One group was injected with physiological saline to serve as control. The other group was injected with 15 mg/Kg of benzene-partition sample (prepared as in Example 2) in suspension form (0.6 mg/ml) in physiological saline solution containing 0.5% carboxymethylcellulose. […] These are all considered as indicators of neuroleptic activity.

[7] = Morphine antagonism (Straub tail phenomenon); conditions: SC-8 1.5 mg/Kg, morphine sulfate 20 mg/Kg ip

COc1ccc(C(O)C(C)Oc2ccc([C@@H]3O[C@@H](c4ccc(OC(C)C(O)c5ccc(OC)c(OC)c5)c(OC)c4)[C@@H](C)[C@@H]3C)cc2OC)cc1OC (stereo partly drawn) [SC-8, 2α,5β-bis[3-methoxy-4-{threo-3-hydroxy-3-(3,4-dimethoxyphenyl)}isopropoxyphenyl]-3α,4β-dimethyltetrahydrofuran]
solubility in alcohols, acetone, chloroform, benzene and ethyl acetate (Solubility; alcohols, acetone, chloroform, benzene, ethyl acetate): readily soluble | solubility in ether (Solubility; ether): sparingly | solubility in hexane or water (Solubility; hexane or water): very slightly | Inhibition of Aggressiveness (in words) ([1]; 1 mg/Kg, 3 mice): Slight | % Inhibition of Aggressiveness ([1]; 3 mice): > 75% | % Inhibition of Aggressiveness ([1]; 5 mice, repeat experiment): > 75% | % Mortality, Avg (Pimephales promelas; 0.13 mg/L): 9% | % Mortality, single replicates (1 to 6) (Pimephales promelas; 0.13 mg/L): 0% (3×) and 17% (3×) | % Mortality, Avg (Pimephales promelas; 0.25 mg/L): 28% | % Mortality, single replicates (1 to 6) (Pimephales promelas; 0.25 mg/L): 33% (4×) and 17% (2×) | % Mortality, Avg (Pimephales promelas; 0.38 mg/L): 50% | % Mortality, single replicates (1 to 6) (Pimephales promelas; 0.38 mg/L): 67% and 50% (4×) and 33% | % Mortality, Avg (Pimephales promelas; 0.5 mg/L): 64% | % Mortality, single replicates (1 to 6) (Pimephales promelas; 0.5 mg/L): 67% (5×) and 50% | % Mortality, Avg (Pimephales promelas; 0.75 mg/L): 75% | % Mortality, single replicates (1 to 6) (Pimephales promelas; 0.75 mg/L): 83% (3×) and 67% (3×) | % Mortality, Avg (Pimephales promelas; 1.0 mg/L): 97% | % Mortality, single replicates (1 to 6) (Pimephales promelas; 1.0 mg/L): 100% (5×) and 83% | LC50 (Pimephales promelas; 2 hours of exposure, pH 6.5, 23° C): 0.48 µg/mL (≈ 0.655 µM) | Number of Galls/Root System, single replicates (1 to 10) (Meloidogyne incognita; Table 3, 1 ppm, 1% ethanol): 17 (2×) and 13 and 20 and 21 and 24 and 3 and 28 and 40 and 16 | Number of Galls/Root System, Avg. (Meloidogyne incognita; Table 3, 1 ppm, 1% ethanol, 1% ethanol control 23.7, water 28.8): 19.8 | Number of Galls/Root System, single replicates (1 to 10) (Meloidogyne incognita; Table 3, 5 ppm, 1% ethanol): 26 and 34 and 3 and 0 (2×) and 19 and 24 and 4 and 14 and 13 | Number of Galls/Root System, Avg. (Meloidogyne incognita; Table 3, 5 ppm, 1% ethanol, 1% ethanol control 23.7, water 28.8): 13.7 | Number of Galls/Root System, single replicates (1 to 10) (Meloidogyne incognita; Table 3, 10 ppm, 1% ethanol): 14 (2×) and 17 and 18 and 1 and 2 and 42 and 29 and 3 and 7 | Number of Galls/Root System, Avg. (Meloidogyne incognita; Table 3, 10 ppm, 1% ethanol, 1% ethanol control 23.7, water 28.8): 14.7 | Number of Galls/Root System, single replicates (1 to 10) (Meloidogyne incognita; Table 3, 25 ppm, 1% ethanol): 3 and 10 and 11 and 18 and 17 (2×) and 26 and 15 and 12 and 24 | Number of Galls/Root System, Avg. (Meloidogyne incognita; Table 3, 25 ppm, 1% ethanol, 1% ethanol control 23.7, water 28.8): 15.3 | Number of Galls/Root System, single replicates (1 to 10) (Meloidogyne incognita; Table 3, 50 ppm, 1% ethanol): 12 (3×) and 15 and 16 (2×) and 20 and 21 and 18 and 7 | Number of Galls/Root System, Avg. (Meloidogyne incognita; Table 3, 50 ppm, 1% ethanol, 1% ethanol control 23.7, water 28.8): 14.9 | Number of Galls/Root System, single replicates (1 to 10) (Meloidogyne incognita; Table 4, 1 ppm, 0.01% ethanol): 7 and 10 and 18 and 14 and 23 and 32 and 1 and 5 and 16 and 9 | Number of Galls/Root System, Avg. (Meloidogyne incognita; Table 4, 1 ppm, 0.01% ethanol, water 25.5): 13.5 | Number of Galls/Root System, single replicates (1 to 10) (Meloidogyne incognita; Table 4, 5 ppm, 0.05% ethanol): 7 and 36 and 17 and 18 and 25 and 6 and 14 and 16 and 11 | Number of Galls/Root System, Avg. (Meloidogyne incognita; Table 4, 5 ppm, 0.05% ethanol, water 25.5): 16.7 | Number of Galls/Root System, single replicates (1 to 10) (Meloidogyne incognita; Table 4, 10 ppm, 0.1% ethanol): 10 and 22 and 34 and 23 and 25 and 26 and 24 and 0 | Number of Galls/Root System, Avg. (Meloidogyne incognita; Table 4, 10 ppm, 0.1% ethanol, water 25.5): 18.4 | Number of Galls/Root System, single replicates (1 to 10) (Meloidogyne incognita; Table 4, 25 ppm, 0.25% ethanol): 1 and 8 and 30 and 2 and 28 and 7 and 14 | Number of Galls/Root System, Avg. (Meloidogyne incognita; Table 4, 25 ppm, 0.25% ethanol, water 25.5): 10.1 | Number of Galls/Root System, single replicates (1 to 10) (Meloidogyne incognita; Table 4, 50 ppm, 0.5% ethanol): 12 and 4 and 0 and 22 and 8 and 1 and 5 and 34 | Number of Galls/Root System, Avg. (Meloidogyne incognita; Table 4, 50 ppm, 0.5% ethanol, water 25.5): 8.6 | LD50 at 24 h [2]: 5.2 ± 0.2 mg/kg | LD10 (mice [3]; mice): 4 mg/kg | toxicity by the oral route (mice [3]; mice, oral, dose range of 10-20 mg/Kg): toxic | absorbability following oral administration (mice [3]; oral, inferred from oral toxicity at 10-20 mg/Kg): ready absorbability | mortality at 500 ppm ([4]; 500 ppm in food): 90% | mortality at 1000 ppm ([4]; 1000 ppm in food): 100% | mortality at 100 ppm [5]: 93% | behavioral signs (mice [6]): head drop with righting reflex; also recorded: decreased locomotion; also recorded: abduced hindlegs with righting reflex; also recorded: unsteady gait; also recorded: catalepsy | lowering of body temperature from 37° to (mice [6]; from 37°): 31 ° | effect on morphine-induced Straub tail [7]: counteracted this effect | Degree of Tail Elevation, After 20 min. ([7]; before SC-8 40°): 10 ° | Degree of Tail Elevation, After 50 min. ([7]; before SC-8 40°): 10 °
